Data: patent US8524257B2, “Menthol-containing solids composition” (Symrise AG, priority 2005, dated 2013)

Assays:
[1] = Dissolving test in ethanol/water, time to complete dissolution; type: physicochemical; settings: 5 g in 95 g ethanol/water (equal parts by weight), 20° C., stirred, visual determination
Experimental: The different rates of dissolution of a solids composition according to the invention of Example 1a above and of forms of l-menthol that are not in accordance with the invention were compared.
To this end, 5 g of l-menthol or 5 g of the l-menthol-containing solids composition according to the invention of Example 1a were added to 95 g of a mixture, kept at a constant temperature of 20° C., of equal parts by weight of ethanol and water, and the time taken for the menthol or the menthol-containing solids composition to dissolve completely (visual determination) was calculated.
The dissolving test was carried out in a glass beaker having a diameter of 5 cm and a filling height of 7 cm. The contents of the glass beaker were stirred during the dissolving test in each case using a magnetic stirring bead having a length of 4 cm with a magnetic stirrer speed of 4 revolutions per second. The temperature was monitored with a Pt-100 thermometer which was immersed to a depth of 5 cm in the liquid, was located at a distance of 1 cm from the wall of the glass beaker and at the same time served as flow breaker.
The size of the crystals corresponded to the typical (commercial) crystal geometry of natural l-menthol.

[2] = cited from earlier work

Row | SMILES | Time to complete dissolution [1] | other results
1 | CC(C)[C@@H]1CC[C@@H](C)C[C@H]1O [Clumped menthol crystals, l-menthol] | 280 s | –
2 | CC(C)[C@@H]1CC[C@@H](C)C[C@H]1O [flaked l-menthol, l-menthol] | – | adhesion and clumping ([2]; after 24 hours, as described in U.S. Pat. No. 3,064,311): adhesion and clumping of the flakes
3 | CC1CCC(C(C)C)C(O)C1 (stereo not drawn) [menthol pressed articles, menthol] | – | clumping and caking ([2]; stored for prolonged periods of over three months): gradually clump and cake together

Further lines, with some results ahead:

Row | Time to complete dissolution [1] | SMILES | other results
4 | 255 s | CC(C)[C@@H]1CC[C@@H](C)C[C@H]1O [Crystals of natural menthol, l-menthol] | –
5 | 170 s | CC(C)[C@@H]1CC[C@@H](C)C[C@H]1O [Menthol crystals from Example 1, l-menthol] | –
6 | 504 s | CC(C)[C@@H]1CC[C@@H](C)C[C@H]1O [Menthol pellets according to WO 03/101924, Example 1] [l-menthol] | –
